Structures can show the parent of a compound that is named as a salt. Where two headings read alike, the source gives them in different places.
Target: T1, interaction of PKCι polypeptides with PAR6 polypeptides (Homo sapiens, UniProt P41743)
T1 construct: amino acids 1-113 or a full-length PKCι polypeptide; 6xHis; made in house
T1 sequence (P41743 10-122): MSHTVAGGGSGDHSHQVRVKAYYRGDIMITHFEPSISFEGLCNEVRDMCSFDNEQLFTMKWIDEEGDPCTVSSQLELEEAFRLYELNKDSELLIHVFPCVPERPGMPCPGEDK
Experiment: Secondary screen: PYN bound to plate-immobilised biotin-tagged PAR6
Type: binding
Conditions: for dose-response analysis using the secondary screening assay: increasing amounts, e.g. 0, 0.1, 1, 10, 100, and 100 μM
Method: Multiple test compounds that were classified as hits in the primary screen as well as additional related compounds were evaluated in a secondary screen designed as follows. Briefly, a 96-well microtiter plate coated with streptavidin (Nunc #436014) was incubated for 2-4 hours at room temperature with 100 μl of a 20-30 μg/ml solution of biotin-tagged PAR6 (whole polypeptide) in phosphate-buffered saline containing Tween-20 (PBST). Plates were washed twice with PBST, then once with incubation buffer (50 mM Tris, pH 8.0; 135 mM NaCl; 10% glycerol; 0.002% EDTA). Incubation buffer (50 μl) was added to each well. The compounds to be tested were added (10 μl) followed by PYN (50 μl) diluted in incubation buffer to an approximate concentration of 4000-5000 relative fluorescent units per 50 μl. Plates were incubated overnight at 4° C. Plates were washed twice with incubation buffer, after which 50 μl incubation buffer was added to retain moisture in the wells. The amount of PYN bound on the plates was determined by measuring yellow fluorescence (532/526) in a Typhoon imager. Fluorescence was quantitated by Softmax Pro software.
A dose-response analysis was performed using the secondary screening assay and increasing amounts (e.g., 0, 0.1, 1, 10, 100, and […]) of gossypol, hexestrol, thimerosal, ebselen, ATG, ATM, ellagic acid, cisplatin, apomorphine, or phenylmercuric acetate.

[1] = amount of PYN bound to biotin-tagged PAR6 plates

With C[n+]1c2cc(N)ccc2cc2ccc(N)cc21.[Cl-] [Acriflavinium hydrochloride] the “Secondary Screen” value [1] was “No effect”.

In the case of N=C(N)NC(=O)c1nc(Cl)c(N)nc1N [Amiloride], the “Secondary Screen” value [1] is reported as “No effect”.

CCN(CC)Cc1cc(Nc2ccnc3cc(Cl)ccc23)ccc1O [Amodiaquine] was tested, and the “Secondary Screen” value [1] was “No effect”.

For CCCc1ncc(C[n+]2ccccc2C)c(N)n1 [Amprolium], the “Secondary Screen” value [1] was “No effect”.

For CN1CCc2cccc3c2[C@H]1Cc1ccc(O)c(O)c1-3 [Apomorphine], the “Secondary Screen” value [1] was “Confirmed”, the “Secondary Screen” value (amount of PYN bound to biotin-tagged PAR6 plates, listed as apomorphine) was “confirmed” and the “dose-response analysis using the secondary screening assay” value (“dose-response analysis” for short) was “dose-dependent response was detected”.

In the case of COc1ccc(C(Cl)=C(c2ccc(OC)cc2)c2ccc(OC)cc2)cc1 [Chlorotrianisene], the “Secondary Screen” value [1] is reported as “No effect (related compound”.

Oc1cc(O)c2c(c1)O[C@H](c1ccc(O)c(O)c1)[C@@H](O)C2 [Cianidanol] was tested, and the “Secondary Screen” value [1] was “No effect (related compound”.

For N.N.[Cl][Pt][Cl] [Cisplatin], the “Secondary Screen” value [1] was “Confirmed”, the “Secondary Screen” value (amount of PYN bound to biotin-tagged PAR6 plates, listed as cisplatin) was “confirmed” and the “dose-response analysis” value was “dose-dependent response was detected”.

With Cc1cc(N)c2ccccc2[n+]1CCCCCCCCCC[n+]1c(C)cc(N)c2ccccc21 [Dequalinium chloride] the “Secondary Screen” value [1] was “No effect”.

With O=c1oc2c(O)c(O)cc3c(=O)oc4c(O)c(O)cc1c4c23 [Ellagic acid] the “Secondary Screen” value [1] was “Confirmed”, the “Secondary Screen” value (amount of PYN bound to biotin-tagged PAR6 plates, listed as ellagic acid) was “confirmed” and the “dose-response analysis” value was “dose-dependent response was detected”.

In the case of CNC[C@H](O)c1ccc(O)c(O)c1 [Epinephrine bitartrate], the “Secondary Screen” value [1] is reported as “No effect”.

In the case of CCC(=O)O[C@H]1[C@H](O[C@@H]2[C@@H](C)[C@H](O[C@H]3C[C@@](C)(OC)[C@@H](O)[C@H](C)O3)[C@@H](C)C(=O)O[C@H](CC)[C@@](C)(O)[C@H](O)[C@@H](C)C(=O)[C@H](C)C[C@@]2(C)O)O[C@H](C)C[C@@H]1N(C)C [Erythromycin propionate lauryl sulfate], the “Secondary Screen” value [1] is reported as “No effect”.

For C[C@]12CC[C@@H](O)C[C@H]1CC[C@@H]1[C@@H]2CC[C@]2(C)C(=O)CC[C@@H]12 [Etiocholanolone], the “Secondary Screen” value was “No effect”.

Nc1nc2ncc(CNc3ccc(C(=O)N[C@@H](CCC(=O)O)C(=O)O)cc3)nc2c(=O)[nH]1 [Folic acid] was tested, and the “Secondary Screen” value [1] was “No effect”.

O=C1OCCN1/N=C/c1ccc([N+](=O)[O-])o1 [Furazolidone] was tested, and the “Secondary Screen” value [1] was “No effect”.

O=C(O)c1cc(O)ccc1O [Gentisic acid] was tested, and the “Secondary Screen” value [1] was “No effect”.

For O=C(OCC(O)CO)c1ccccc1Nc1ccnc2cc(Cl)ccc12 (stereo not shown) [Glafenine], the “Secondary Screen” value [1] was “No effect”.

In the case of COc1ccc2c(c1OC)C(=O)O[C@@H]2[C@H]1c2cc3c(cc2CCN1C)OCO3 [Hydrastine], the “Secondary Screen” value [1] is reported as “No effect”.

O=C(O)c1cc2ccccc2c(Cc2c(O)c(C(=O)O)cc3ccccc23)c1O.OCCOCCN1CCN(C(c2ccccc2)c2ccc(Cl)cc2)CC1 [Hyydroxyzine pamoate] was tested, and the “Secondary Screen” value [1] was “No effect”.

CC(C)NCC(O)c1ccc(O)c(O)c1 (stereo not shown) [Isoproterenol hydrochloride] was tested, and the “Secondary Screen” value [1] was “No effect”.

With CC(=O)/N=c1/sc(S(N)(=O)=O)nn1C [Methazolamide] the “Secondary Screen” value [1] was “No effect”.

CC[C@@H](CO)NC(=O)[C@@H]1C=C2c3cccc4[nH]cc(c34)C[C@H]2N(C)C1 [Methylergonovine] was tested, and the “Secondary Screen” value [1] was “No effect”.

For CC[C@@]1([C@@H]2O[C@@H]([C@H]3O[C@@](O)(CO)[C@H](C)C[C@@H]3C)C[C@@H]2C)CC[C@H]([C@]2(C)CC[C@]3(C[C@H](O)[C@@H](C)[C@@H]([C@@H](C)[C@@H](OC)[C@H](C)C(=O)O)O3)O2)O1 [Monensin, sodium], the “Secondary Screen” value [1] was “No effect”.

COc1c(C)c2c(c(O)c1C/C=C(\C)CCC(=O)O)C(=O)OC2 [Mycophenolic acid] was tested, and the “Secondary Screen” value [1] was “No effect”.

In the case of C[C@@H]1O[C@@H](O[C@H]2[C@H](Oc3cc(O)c4c(c3)O[C@H](c3ccc(O)cc3)CC4=O)O[C@H](CO)[C@@H](O)[C@@H]2O)[C@H](O)[C@H](O)[C@H]1O [Naringin], the “Secondary Screen” value [1] is reported as “No effect”.

In the case of Nc1ccc(/N=N/c2ccccc2)c(N)n1 [Phenazopyridine], the “Secondary Screen” value [1] is reported as “No effect”.

In the case of CC(=O)[O-].[Hg+][c]1ccccc1 [Phenylmercuric acetate], the “Secondary Screen” value (amount of PYN bound to biotin-tagged PAR6 plates, acetate) is reported as “Confirmed”, the “Secondary Screen” value (amount of PYN bound to biotin-tagged PAR6 plates, listed as phenylmercuric acetate, acetate) is reported as “confirmed” and the “dose-response analysis” value is reported as “dose-dependent response was detected”.

COc1cc(NC(C)CCCN)c2ncccc2c1 (stereo not shown) [Primaquine phosphate] was tested, and the “Secondary Screen” value [1] was “No effect”.

With CC(C)[N+](C)(CCOC(=O)C1c2ccccc2Oc2ccccc21)C(C)C [Propantheline bromide] the “Secondary Screen” value [1] was “No effect”.

For CN1CCCN=C1/C=C/c1cccs1 [Pyrantel pamoate], the “Secondary Screen” value [1] was “Confirmed” and the “Secondary Screen” value (amount of PYN bound to biotin-tagged PAR6 plates, listed as pyrantel pamoate) was “confirmed”.

In the case of O=C1C=CC(=C(c2ccc(O)cc2)c2ccc(O)cc2)C=C1 [Rosolic acid], the “Secondary Screen” value [1] is reported as “No effect”.

CC1=C(CC(=O)O)c2cc(F)ccc2/C1=C\c1ccc([S+](C)[O-])cc1 (stereo not shown) [Sulindac] was tested, and the “Secondary Screen” value [1] was “No effect”.

For C[CH2][Hg][S]c1ccccc1C(=O)[O-].[Na+] [Thimerosal], the “Secondary Screen” value [1] was “Confirmed”, the “Secondary Screen” value (amount of PYN bound to biotin-tagged PAR6 plates, listed as thimerosal) was “confirmed” and the “dose-response analysis” value was “dose-dependent response was detected”.

For CC1=C(/C=C/C(C)=C/C=C/C(C)=C/C(=O)O)C(C)(C)CCC1 [Tretinon], the “Secondary Screen” value [1] was “No effect”.

CN(C)CCCN1c2ccccc2Sc2ccc(C(F)(F)F)cc21 [Triflupromazine] was tested, and the “Secondary Screen” value [1] was “No effect”.

For C[C@]12CC[C@@H]3c4ccc(O)cc4CC[C@H]3[C@@H]1CC[C@@H]2O [b-estradiol], the “Secondary Screen” value [1] was “had no effect)”.

With CC1=C(C(=O)O)N2C(=O)[C@@H](NC(=O)[C@H](N)c3ccc(O)cc3)[C@H]2SC1 [cefadroxil] the “Secondary Screen” value [1] was “had no effect)”.

With [H]/N=C(\N/C(=N/[H])NCCCCCCNC(=N)NC(=N)Nc1ccc(Cl)cc1)Nc1ccc(Cl)cc1 [chlorhexidine] the “Secondary Screen” value [1] was “No effect”.

O=C(CCCN1CC=C(n2c(=O)[nH]c3ccccc32)CC1)c1ccc(F)cc1 [droperidol] was tested, and the “Secondary Screen” value [1] was “droperidol had no effect)”.

With CCn1cc(C(=O)O)c(=O)c2cc(F)c(N3CCNCC3)nc21 [enoxacin] the “Secondary Screen” value [1] was “lomefloxacin had no effect)”.

For COc1ccc([C@@H]2CC(=O)c3c(O)cc(O[C@@H]4O[C@H](CO[C@@H]5O[C@@H](C)[C@H](O)[C@@H](O)[C@H]5O)[C@@H](O)[C@H](O)[C@H]4O)cc3O2)cc1O [hespiridin], the “Secondary Screen” value [1] was “hespiridin had no effect)”.

CC[C@H](c1ccc(O)cc1)[C@@H](CC)c1ccc(O)cc1 [hexestrol] was tested, and the “Secondary Screen” value [1] was “hexestrol was confirmed)” and the “dose-response analysis” value was “dose-dependent response was detected”.

In the case of CCn1cc(C(=O)O)c(=O)c2cc(F)c(N3CCNC(C)C3)c(F)c21 (stereo not shown) [lomefloxacin], the “Secondary Screen” value [1] is reported as “lomefloxacin had no effect)”.

For Antimycin A, the “Secondary Screen” value [1] was “No effect”.

With Benzalkonium chloride the “Secondary Screen” value [1] was “No effect”.

Veratrine sulfate was tested, and the “Secondary Screen” value [1] was “No effect”.

Source: US7642400B2, “Protein kinase C iota” (Mayo Foundation for Medical Education and Research, priority 2004, dated 2010)
